Tested on: 782815-120-R-J1-PDC complex spheroid viability
Assay: Anticancer human tumor 782815-120-R-J1-PDC patient-derived colon adenocarcinoma cell line growth inhibition [RAS]
Settings: for viability, T/C: stronger effect = lower value
In short: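 Tumour cells grown as complex spheroids with HUVEC endothelial cells and mesenchymal stem cells, treated with RAS pathway inhibitor combinations. Each agent spans half-log steps from near clinical Cmax, or 10 microM where Cmax is unknown.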
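Also: spheroids exposed to compounds for 7 days before reading.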
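For viability, T/C in this document: 100% = DMSO vehicle control viability.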

**Q.** Which IC50 (curve of first compound, second compound 0.00316 µM) does the source give for `C=CC(=O)Nc1cc(Nc2nccc(-c3cn(C)c4ccccc34)n2)c(OC)cc1N(C)CCN(C)C` + C=CC(=O)N1CCN(c2nc(OCC3CCCN3C)nc3c(F)c(-c4nc(N)cc(C)c4C(F)(F)F)c(Cl)cc23)C(C)C1 here?
**A.** > 1000 nM

**Q.** And the IC50 (curve of first compound, second compound 0.01 µM)?
**A.** > 1000 nM

**Q.** What about the IC50 (curve of first compound, second compound 0.0316 µM) of the same compound?
**A.** > 1000 nM

**Q.** And the IC50 (curve of first compound, second compound 0.1 µM)?
**A.** > 1000 nM

**Q.** And the IC50 (curve of first compound, second compound 0.316 µM)?
**A.** > 1000 nM

**Q.** What about the IC50 (curve of first compound, second compound 1 µM) of the same compound?
**A.** > 1000 nM

**Q.** And the viability, T/C (second compound 0.00316 µM, first compound 0.00316 µM)?
**A.** 92.7%

**Q.** And the viability, T/C (second compound 0.00316 µM, first compound 0.01 µM)?
**A.** 98.3%

**Q.** What about the viability, T/C (second compound 0.00316 µM, first compound 0.0316 µM) of the same compound?
**A.** 101%

**Q.** And the viability, T/C (second compound 0.00316 µM, first compound 0.1 µM)?
**A.** 95%

**Q.** And the viability, T/C (second compound 0.00316 µM, first compound 0.316 µM)?
**A.** 92.9%

**Q.** And the viability, T/C (second compound 0.00316 µM, first compound 1 µM)?
**A.** 99.8%

**Q.** What about the viability, T/C (second compound 0.01 µM, first compound 0.00316 µM) of the same compound?
**A.** 91.9%

**Q.** And the viability, T/C (second compound 0.01 µM, first compound 0.01 µM)?
**A.** 92%

**Q.** And the viability, T/C (second compound 0.01 µM, first compound 0.0316 µM)?
**A.** 91.8%

**Q.** What about the viability, T/C (second compound 0.01 µM, first compound 0.1 µM) of the same compound?
**A.** 91.6%

**Q.** And the viability, T/C (second compound 0.01 µM, first compound 0.316 µM)?
**A.** 93.8%

**Q.** What about the viability, T/C (second compound 0.01 µM, first compound 1 µM) of the same compound?
**A.** 91%

**Q.** What about the viability, T/C (second compound 0.0316 µM, first compound 0.00316 µM) of the same compound?
**A.** 98.3%

**Q.** And the viability, T/C (second compound 0.0316 µM, first compound 0.01 µM)?
**A.** 101%

**Q.** And the viability, T/C (second compound 0.0316 µM, first compound 0.0316 µM)?
**A.** 98.1%

**Q.** What about the viability, T/C (second compound 0.0316 µM, first compound 0.1 µM) of the same compound?
**A.** 92.1%

**Q.** And the viability, T/C (second compound 0.0316 µM, first compound 0.316 µM)?
**A.** 92.9%

**Q.** And the viability, T/C (second compound 0.0316 µM, first compound 1 µM)?
**A.** 88.5%

**Q.** And the viability, T/C (second compound 0.1 µM, first compound 0.00316 µM)?
**A.** 100%

**Q.** What about the viability, T/C (second compound 0.1 µM, first compound 0.01 µM) of the same compound?
**A.** 88.6%

**Q.** And the viability, T/C (second compound 0.1 µM, first compound 0.0316 µM)?
**A.** 96%

**Q.** What about the viability, T/C (second compound 0.1 µM, first compound 0.1 µM) of the same compound?
**A.** 92.9%

**Q.** What about the viability, T/C (second compound 0.1 µM, first compound 0.316 µM) of the same compound?
**A.** 109%

**Q.** And the viability, T/C (second compound 0.1 µM, first compound 1 µM)?
**A.** 90.7%

**Q.** And the viability, T/C (second compound 0.316 µM, first compound 0.00316 µM)?
**A.** 101%

**Q.** And the viability, T/C (second compound 0.316 µM, first compound 0.01 µM)?
**A.** 95.1%

**Q.** And the viability, T/C (second compound 0.316 µM, first compound 0.0316 µM)?
**A.** 92.3%

**Q.** What about the viability, T/C (second compound 0.316 µM, first compound 0.1 µM) of the same compound?
**A.** 95.6%

**Q.** What about the viability, T/C (second compound 0.316 µM, first compound 0.316 µM) of the same compound?
**A.** 93.9%

**Q.** What about the viability, T/C (second compound 0.316 µM, first compound 1 µM) of the same compound?
**A.** 91.6%

**Q.** And the viability, T/C (second compound 1 µM, first compound 0.00316 µM)?
**A.** 96.6%

**Q.** What about the viability, T/C (second compound 1 µM, first compound 0.01 µM) of the same compound?
**A.** 90.1%

**Q.** And the viability, T/C (second compound 1 µM, first compound 0.0316 µM)?
**A.** 90.3%

**Q.** What about the viability, T/C (second compound 1 µM, first compound 0.1 µM) of the same compound?
**A.** 96%

**Q.** And the viability, T/C (second compound 1 µM, first compound 0.316 µM)?
**A.** 93.4%

**Q.** And the viability, T/C (second compound 1 µM, first compound 1 µM)?
**A.** 91.7%

**Q.** `C=CC(=O)N1CCN(c2nc(OCC3CCCN3C)nc3c(F)c(-c4nc(N)cc(C)c4C(F)(F)F)c(Cl)cc23)C(C)C1` (stereo not given) + CCn1c(-c2cc(N3CCN(C)CC3)cnc2C(C)OC)c2c3cc(ccc31)-c1csc(n1)CC(NC(=O)C1CC1C)C(=O)N1CCCC(N1)C(=O)OCC(C)(C)C2 was tested. Which IC50 (curve of first compound, second compound 0.000949 µM) did it give?
**A.** > 1000 nM

**Q.** And the IC50 (curve of first compound, second compound 0.003 µM)?
**A.** > 1000 nM

**Q.** What about the IC50 (curve of first compound, second compound 0.00949 µM) of the same compound?
**A.** < 3.16 nM

**Q.** And the IC50 (curve of first compound, second compound 0.03 µM)?
**A.** < 3.16 nM

**Q.** And the IC50 (curve of first compound, second compound 0.0949 µM)?
**A.** < 3.16 nM

**Q.** And the IC50 (curve of first compound, second compound 0.3 µM)?
**A.** < 3.16 nM

**Q.** What about the viability, T/C (second compound 0.000949 µM, first compound 0.00316 µM) of the same compound?
**A.** 82.5%

**Q.** What about the viability, T/C (second compound 0.000949 µM, first compound 0.01 µM) of the same compound?
**A.** 74.3%

**Q.** And the viability, T/C (second compound 0.000949 µM, first compound 0.0316 µM)?
**A.** 70%

**Q.** And the viability, T/C (second compound 0.000949 µM, first compound 0.1 µM)?
**A.** 79.5%

**Q.** What about the viability, T/C (second compound 0.000949 µM, first compound 0.316 µM) of the same compound?
**A.** 77.1%

**Q.** And the viability, T/C (second compound 0.000949 µM, first compound 1 µM)?
**A.** 90%

**Q.** What about the viability, T/C (second compound 0.003 µM, first compound 0.00316 µM) of the same compound?
**A.** 57.1%

**Q.** And the viability, T/C (second compound 0.003 µM, first compound 0.01 µM)?
**A.** 56.9%

**Q.** What about the viability, T/C (second compound 0.003 µM, first compound 0.0316 µM) of the same compound?
**A.** 57.9%

**Q.** And the viability, T/C (second compound 0.003 µM, first compound 0.1 µM)?
**A.** 49.6%

**Q.** What about the viability, T/C (second compound 0.003 µM, first compound 0.316 µM) of the same compound?
**A.** 55%

**Q.** And the viability, T/C (second compound 0.003 µM, first compound 1 µM)?
**A.** 57.2%

**Q.** And the viability, T/C (second compound 0.00949 µM, first compound 0.00316 µM)?
**A.** 31.1%

**Q.** And the viability, T/C (second compound 0.00949 µM, first compound 0.01 µM)?
**A.** 32%

**Q.** What about the viability, T/C (second compound 0.00949 µM, first compound 0.0316 µM) of the same compound?
**A.** 36.7%

**Q.** What about the viability, T/C (second compound 0.00949 µM, first compound 0.1 µM) of the same compound?
**A.** 29.8%

**Q.** What about the viability, T/C (second compound 0.00949 µM, first compound 0.316 µM) of the same compound?
**A.** 31.6%

**Q.** And the viability, T/C (second compound 0.00949 µM, first compound 1 µM)?
**A.** 31%

**Q.** And the viability, T/C (second compound 0.03 µM, first compound 0.00316 µM)?
**A.** 19.6%

**Q.** And the viability, T/C (second compound 0.03 µM, first compound 0.01 µM)?
**A.** 22%

**Q.** And the viability, T/C (second compound 0.03 µM, first compound 0.0316 µM)?
**A.** 17.9%

**Q.** What about the viability, T/C (second compound 0.03 µM, first compound 0.1 µM) of the same compound?
**A.** 20.6%

**Q.** And the viability, T/C (second compound 0.03 µM, first compound 0.316 µM)?
**A.** 18.1%

**Q.** What about the viability, T/C (second compound 0.03 µM, first compound 1 µM) of the same compound?
**A.** 19.8%

**Q.** What about the viability, T/C (second compound 0.0949 µM, first compound 0.00316 µM) of the same compound?
**A.** 16%

**Q.** And the viability, T/C (second compound 0.0949 µM, first compound 0.01 µM)?
**A.** 14.3%

**Q.** And the viability, T/C (second compound 0.0949 µM, first compound 0.0316 µM)?
**A.** 16.1%

**Q.** And the viability, T/C (second compound 0.0949 µM, first compound 0.1 µM)?
**A.** 15.5%

**Q.** What about the viability, T/C (second compound 0.0949 µM, first compound 0.316 µM) of the same compound?
**A.** 15.2%

**Q.** And the viability, T/C (second compound 0.0949 µM, first compound 1 µM)?
**A.** 13.5%

**Q.** And the viability, T/C (second compound 0.3 µM, first compound 0.00316 µM)?
**A.** 16.1%

**Q.** And the viability, T/C (second compound 0.3 µM, first compound 0.01 µM)?
**A.** 16.3%

**Q.** What about the viability, T/C (second compound 0.3 µM, first compound 0.0316 µM) of the same compound?
**A.** 15.6%

**Q.** And the viability, T/C (second compound 0.3 µM, first compound 0.1 µM)?
**A.** 16.5%

**Q.** What about the viability, T/C (second compound 0.3 µM, first compound 0.316 µM) of the same compound?
**A.** 16.2%

**Q.** And the viability, T/C (second compound 0.3 µM, first compound 1 µM)?
**A.** 13.6%

**Q.** How did the viability, T/C (compound 0.0316 µM) turn out when `C[C@@H](NC(=O)c1ncnc(N)c1Cl)c1ncc(C(=O)Nc2cc(C(F)(F)F)c(Cl)cn2)s1` was run?
**A.** 105% [middle of 4 runs]

**Q.** What about the viability, T/C (compound 0.1 µM) of the same compound?
**A.** 99.3% [middle of 4 runs]

**Q.** What about the viability, T/C (compound 0.316 µM) of the same compound?
**A.** 98.1% [middle of 4 runs]

**Q.** And the viability, T/C (compound 3.16 µM)?
**A.** 83% [middle of 4 runs]

**Q.** And the viability, T/C (compound 10 µM)?
**A.** 62.2% [middle of 4 runs]

**Q.** And the IC50 (curve of compound)?
**A.** > 10000 nM

Reference: PubChem BioAssay AID2060887 (Molecular Pharmacology Branch, DTP, NCI, 2025)
